Patent US8486994B2, “Prodrugs of substituted 1,3-dioxanes and their uses” (Evolva SA, priority 2007, dated 2013)
Like-named read-outs stand apart in the source and are kept apart here. Each block holds one compound with its values, some of them ahead of it.

Experiments:
[1] = Pharmacokinetics (plasma exposure) after i.v. or p.o. dosing, non-compartmental analysis; format: in vivo, male Wistar rats; details: rat; for half-life: read-out: Terminal Half-life elimination, t½z
Procedure: Animals were fasted overnight before dosing p.o. (gavage or capsule) or by bolus intravenous application. Blood samples (approx. 0.15 ml) were taken at different time points into heparinized tubes by automated blood sampling. Plasma was prepared and stored frozen until bioanalysis.
• to an aliquot of 10 μL plasma 30 μL ACN/EtOH (50/50, v/v) are added • vortex • 20 min 14000 rpm approx. 8° C. • Supernatant transfer in HPLC vial Liquid Chromatography
The samples were analyzed by mass spectroscopy using ESI (negative ion mode) as the ionization mode. Selected Reaction Monitoring:
The quantitatively measured plasma concentration-time data were subjected to non-compartmental analysis (NCA) using the PCModfit program (version 3.00) for Windows® running with Excel 2003 (http://home2.btconnect.com/Gamms/PCModfit/; Allen, G. D. ‘Modfit: a pharmacokinetics computer program’ Biopharm. and Drug Disp., Vol. 11, 477-498, 1990). The points selected in each profile for half-life estimation using numerical analysis, where possible, corresponded to the final linear phase as visually assessed from ln(concentration) vs. time plots. The terminal elimination rate constant (λz) for each profile was numerically estimated using iteratively re-weighted non-linear least squares analysis with a weighting factor of 1/Ĉ^2. The area under the concentration-time curve to the last actual time point (AUC0-t) and infinity (AUC0-∞) for each data set were estimated using a linear (ascending) trapezoidal method. The extrapolated area to infinity (AUC0-∞) was estimated, where possible, using AUC0-t and the predicted value (Ĉn) at the last time point for each profile.
[formula] [formula] The Ci values correspond to the actual concentrations of drug at time ti for n data points. The C0 value was extrapolated using the first 4 time points.

[2] = system: arterial thrombosis in a mouse model; assay: FeCl3 arterial thrombosis model (femoral artery, laser Doppler blood flow); format: in vivo, mice
Procedure: • Vehicle (DMSO/PEG 400, 5/95) • Dose of 1, 3, 10, 30, 100 and 300 mg/kg of Prodrug 3 in vehicle • Saline • Aspirin (dose of 100 mg and 600 mg/kg in vehicle) • Aspirin (Aspégic from Sanofi Synthelabo; dissolved in Saline) • Clopidogrel (Plavix from Sanofi Pharma; dissolved in H2O)
The solutions are diluted 3.3-fold in saline and 100 μl/25 g is injected. Thus, the above-mentioned doses of 100 and 300 mg/kg of compound correspond to final doses of 30 and 100 mg/kg.
Solutions are injected (100 μl/25 g body weight) i.v. in the tail vein over 2 min to obtain doses of each compound of 30 mg/kg and 100 mg/kg. Aspirin is given the same way at a dose of 200 mg/kg. Clopidogrel is administered by oral gavage at a dose of 20 mg/kg at 6-7 hours prior to the experiment. The animals assigned to each group are matched for body weight. Mice are typically 8-10 weeks old males and are in a 100% Swiss genetic background.
The flow in each image is expressed as a percentage of that at the contralateral side, and data are averaged for all 120 images to determine total flow. The same analysis is performed for 10 min intervals (which gives essentially the same information as the area under the curve). […] Flow before treatment is recorded as 100%, and that in occluded arteries as 0%. At the end of the experiment, blood is collected on 0.01M citrate buffer by heart puncture for determination of blood cell counts. Plasma is prepared by centrifugation and stored at −20° C. for determination of drug levels.
Statistical analysis for differences between two groups is performed by non-parametric Student t-test. Occlusion times >30 min were considered equal to 30 min for statistical analysis. Significance is set at p<0.05.

[3] = molecular target: T1, Thromboxane synthase (Homo sapiens, UniProt P24557); assay: Human Platelet Thromboxane Synthase Assay; format: biochemical
T1 sequence (P24557 1-533): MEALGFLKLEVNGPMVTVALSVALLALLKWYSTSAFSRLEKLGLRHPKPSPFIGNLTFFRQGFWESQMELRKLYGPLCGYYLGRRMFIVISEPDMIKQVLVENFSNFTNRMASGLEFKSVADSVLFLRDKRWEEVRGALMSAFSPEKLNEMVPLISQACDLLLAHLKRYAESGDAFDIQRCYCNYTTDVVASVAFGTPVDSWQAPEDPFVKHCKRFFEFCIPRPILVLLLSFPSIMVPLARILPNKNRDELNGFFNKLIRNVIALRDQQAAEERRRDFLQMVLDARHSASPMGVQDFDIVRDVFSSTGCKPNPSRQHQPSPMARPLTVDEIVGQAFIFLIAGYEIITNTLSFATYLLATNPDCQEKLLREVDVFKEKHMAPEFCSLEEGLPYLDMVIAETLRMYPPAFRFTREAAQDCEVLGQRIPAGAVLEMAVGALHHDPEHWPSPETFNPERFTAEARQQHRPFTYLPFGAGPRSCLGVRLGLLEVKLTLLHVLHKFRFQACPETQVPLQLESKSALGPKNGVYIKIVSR
Procedure: Using these experimental conditions Substrate: 10 μM PGH2, Vehicle: 1% DMSO
Pre-incubation time, temp: 15 min at 25° C., Incubation time, temp: 3 min at 25° C.
1. Imidazole derivatives. J Med Chem. 24(10):1139-48.
(§1) The data were transformed to semi-log and then analysed using non-linear regression to a four-parameter dose-response curve Y=Bottom+(Top−Bottom)/(1+10^((Log EC50−X)*HillSlope)) using the log(agonist) vs. response—Variable slope function of GraphPad Prism software (http://graphpad.com/help/prism5/prism5help.html?usingnonlinear_regression_step_by_s.ht m).

[4] = molecular target: T2, Thromboxane receptor (TP) (Homo sapiens, UniProt P21731); assay: TP Receptor Radioligand Binding ([3H] SQ-29548); details: Human recombinant HEK-293 cells
T2 construct: expressed in transfected cells; host or cells: HEK-293
T2 sequence (P21731 1-343): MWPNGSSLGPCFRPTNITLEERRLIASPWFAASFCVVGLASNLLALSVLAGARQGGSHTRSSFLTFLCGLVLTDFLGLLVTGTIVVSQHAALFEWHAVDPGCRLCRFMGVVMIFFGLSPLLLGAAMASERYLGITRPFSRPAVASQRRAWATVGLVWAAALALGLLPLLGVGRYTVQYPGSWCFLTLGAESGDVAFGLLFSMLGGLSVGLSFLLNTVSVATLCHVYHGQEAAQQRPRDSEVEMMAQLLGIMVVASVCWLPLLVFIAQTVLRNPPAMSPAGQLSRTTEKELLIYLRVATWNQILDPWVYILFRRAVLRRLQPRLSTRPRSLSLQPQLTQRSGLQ
Procedure: Using these experimental conditions Human recombinant HEK-293 cells, Ligand: 5 nM [^3H] […] J Pharmacol Exp Ther. 245(3):786-92792, and Saussy D L Jr, Mais D E, Burch R M and Halushka P V (1986) Identification of a putative thromboxane A2/prostaglandin H2 receptor in human platelet membranes. J Biol Chem. 261(7):3025-9.
as §1

[5] = i.v., 3.56 mg/kg, DMSO/PEG400/PBS 1X (5%/30%/65%)
[6] = p.o., 10 mg/kg, solid in capsules
[7] = i.v., 3.53 mg/kg, DMSO/PEG400 (5%/95%)

half-life ([1]; male, Wistar, plasma, iv, 3.56 mg/kg, i.v., 3.56 mg/kg, DMSO/PEG400/PBS 1X (5%/30%/65%)): 0.767 ± 0.433 h
Tmax ([1]; male, Wistar, plasma, iv, 3.56 mg/kg, i.v., 3.56 mg/kg, DMSO/PEG400/PBS 1X (5%/30%/65%), read-out: Tmax (converted)): 0.0833 h
Cmax (ng/ml)/Dose (mg/kg) [1, 5]: 614 ± 68 (ng/ml)/Dose (mg/kg)
Lin-AUC (0-∞) (ng•min/ml)/Dose (mg/kg) [1, 5]: 12050 ± 1835 (ng•min/ml)/Dose (mg/kg)
T-Last [1, 5]: 3 to 6 h
Compound: O=C(O)CC/C=C\C[C@@H]1CO[C@H](c2ccccc2Cl)O[C@@H]1c1ccccc1O [drawing 18]

half-life ([1]; male, Wistar, plasma, po, 10 mg/kg, p.o., 10 mg/kg, solid in capsules): 1.58 ± 0.567 h
Tmax ([1]; male, Wistar, plasma, po, 10 mg/kg, p.o., 10 mg/kg, solid in capsules, read-out: Tmax (converted)): 1.5 h
Cmax (ng/ml)/Dose (mg/kg) [1, 6]: 236 ± 63 (ng/ml)/Dose (mg/kg)
Lin-AUC (0-∞) (ng•min/ml)/Dose (mg/kg) [1, 6]: 27195 ± 4453 (ng•min/ml)/Dose (mg/kg)
T-Last [1, 6]: 6 to 12 h
Compound: O=C(O)CC/C=C\C[C@@H]1CO[C@H](c2ccccc2Cl)O[C@@H]1c1ccccc1O [drawing 20]

Compound: COC(=O)[C@H](c1ccccc1Cl)N1CCc2sccc2C1 [Clopidogrel]
occlusion time ([2]; 20 mg/kg oral gavage 6-7 hours prior to the experiment): totally prevents occlusion within 30 min in 6/7 experiments
total blood flow ([2]; 20 mg/kg oral gavage 6-7 hours prior, versus vehicle): significantly improved total blood flow

IC50 [3]: 17.5 µM
IC50 [4]: 1.87 µM
Ki [4]: 1.22 µM
Compound: COc1ccccc1[C@@H]1O[C@H](c2ccccc2Cl)OC[C@@H]1C/C=C\CCC(=O)O [Compound 4, (Z)-6-((2R,4R,5S)-2-(2-chlorophenyl)-4-(2-methoxyphenyl)-1,3-dioxan-5-yl)hex-4-enoic acid]

IC50 [3]: 20.4 µM
inhibition at 30 µM ([3]; at 30 μM): 62%
IC50 [4]: 0.0234 µM
Ki [4]: 0.0153 µM
Compound: COc1ccccc1[C@H]1O[C@@H](c2ccccc2Cl)OC[C@H]1C/C=C\CCC(=O)O [Compound 5, (Z)-6-((2S,4S,5R)-2-(2-chlorophenyl)-4-(2-methoxyphenyl)-1,3-dioxan-5-yl)hex-4-enoic acid]

Compound: CC(=O)Oc1ccccc1C(=O)O [Aspirin]
occlusion time ([2]; 200 mg/kg i.v.): no effect on the occlusion time
total blood flow ([2]; 200 mg/kg i.v., versus vehicle): no significant effect on the total blood flow

Cmax (ng/ml)/Dose (mg/kg) [1, 6]: 115 ± 123 (ng/ml)/Dose (mg/kg)
Lin-AUC (0-∞) (ng•min/ml)/Dose (mg/kg) [1, 6]: 17352 ± 14479 (ng•min/ml)/Dose (mg/kg)
T-Last [1, 6]: 8 to 12 h
Terminal Half-life elimination, t½z [1, 6]: 2.22 ± 0.75 h
Tmax [1, 6]: 3 ± 2.12 h
Compound: O=C(O)CC/C=C\C[C@@H]1CO[C@H](c2ccccc2Cl)O[C@@H]1c1ccccc1O [drawing 24]

Compound: COc1ccccc1[C@H]1OC(c2ccccc2Cl)OC[C@H]1C/C=C\CCC(=O)O (stereo partly shown) [Prodrug 3]
total blood flow ([2]; 10 mg/kg in vehicle, i.v.): no effect on total blood flow
occlusion time ([2]; 30 mg/kg in vehicle (DMSO/PEG 400), i.v.): prolongs the occlusion time as compared to aspirin (p=0.024) and the parent compound, but has no effect as compared to vehicle
total blood flow ([2]; 30 mg/kg in vehicle, i.v.): slightly improved total blood flow as compared to aspirin (p=0.055), but not as compared to vehicle

half-life ([1]; male, Wistar, plasma, iv, 3.53 mg/kg, i.v., 3.53 mg/kg, DMSO/PEG400 (5%/95%)): 3.03 ± 0.917 h
Tmax ([1]; male, Wistar, plasma, iv, 3.53 mg/kg, i.v., 3.53 mg/kg, DMSO/PEG400 (5%/95%), read-out: Tmax (converted)): 0.0833 h
Cmax (ng/ml)/Dose (mg/kg) [1, 7]: 554 ± 154 (ng/ml)/Dose (mg/kg)
Lin-AUC (0-∞) (ng•min/ml)/Dose (mg/kg) [1, 7]: 17416 ± 1734 (ng•min/ml)/Dose (mg/kg)
T-Last [1, 7]: 8 to 12 h
Compound: COc1ccccc1[C@H]1OC(c2ccccc2Cl)OC[C@H]1C/C=C\CCC(=O)O (stereo partly shown) [drawing 19]
